Experimental data reported in US20250313535A1, “ALPHA 4 BETA 7 INTEGRIN MODULATORS AND USES THEREOF” (DICE MOLECULES SV, INC., priority 2022, published 2025).
Like-named read-outs stand apart in the source and are kept apart here.

Legend:
[1] = biological target: α4β7 integrin (Homo sapiens (Human), UniProt P13612+P26010); assay: Integrin Adhesion Assay: Protocol 1 (MAdCAM-coated plate, RPMI-8866 cells, CellTiter GLO readout); assay type: cell-based
Experimental: α4β7 and α4β1 inhibition was evaluated in vitro using at least one of the following procedures:
Integrin Adhesion Assay: Protocol 1
MAdCAM (R&D Systems, 0.1 ug) was diluted in 50 μL PBS, added to each well of an opaque ELISA plate (Thermo), and incubated overnight at 4° C. Coated plates were washed once with PBS and then blocked with 200 μL of assay buffer (10 mM HEPES, 150 mM NaCl, 1 mM MnCl2, 0.1 mM CaCl2), 1% BSA) for 1 hour at 37° C. and 5% CO2. After incubation, buffer was aspirated from the plates and 50 μL of fresh assay buffer is added. Compounds were added by a compouns dispenser (Tecan) and DMSO concentration was normalized to 1% across each plate. 50 μL of RPMI-8866 cells (2×10^6 per mL) were added to each well and the plates were incubated for 1 hour at 37° C. and 5% CO2. After incubation, plates were allowed to cool to RT for 10 minutes before being washed four times in assay buffer by an automated plate washer (BioTek). After washing, 100 μL of a 1:1 mixture of assay buffer and CellTiter GLO 2.0 reagent (Promega) were added to each well. Plates were mixed for 2 minutes at 1000 rpm and then allowed to incubate an additional 10 minutes before reading out luminescence on a Tecan Spark plate reader. Raw data was converted to percent inhibition based on DMSO only and control compound wells, and curves were analyzed by 4-parameter fit within Dotmatics software.

[2] = biological target: α4β1 integrin (Homo sapiens (Human), UniProt P05556+P13612); assay: Integrin Adhesion Assay: Protocol 5 (VCAM-coated plate, RPMI-8866 cells with stable LOF mutation of the ITGB7 gene); assay type: cell-based
In short: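 RPMI-8866 B cells with CRISPR/Cas9 ITGB7 knockout (clonal, verified by flow cytometry) adhered to VCAM-coated wells for 1 h at 37° C in HEPES/NaCl buffer with 1 mM MnCl2, 0.1 mM CaCl2, 1% BSA, 1% DMSO. Bound cells quantified by CellTiter-Glo luminescence after washing; % inhibition versus DMSO and control, 4-parameter fit.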

[3] = RPMI-8866 cells with stable LOF mutation of the ITGB7 gene, read-out: Mean IC50 α4β1 KO^b
[4] = Protocol 5, RPMI-8866 cells with LOF mutation of ITGB7, VCAM, read-out: Mean IC50 α4β1 KO

Sequence of α4β7 integrin (P13612 34-1032): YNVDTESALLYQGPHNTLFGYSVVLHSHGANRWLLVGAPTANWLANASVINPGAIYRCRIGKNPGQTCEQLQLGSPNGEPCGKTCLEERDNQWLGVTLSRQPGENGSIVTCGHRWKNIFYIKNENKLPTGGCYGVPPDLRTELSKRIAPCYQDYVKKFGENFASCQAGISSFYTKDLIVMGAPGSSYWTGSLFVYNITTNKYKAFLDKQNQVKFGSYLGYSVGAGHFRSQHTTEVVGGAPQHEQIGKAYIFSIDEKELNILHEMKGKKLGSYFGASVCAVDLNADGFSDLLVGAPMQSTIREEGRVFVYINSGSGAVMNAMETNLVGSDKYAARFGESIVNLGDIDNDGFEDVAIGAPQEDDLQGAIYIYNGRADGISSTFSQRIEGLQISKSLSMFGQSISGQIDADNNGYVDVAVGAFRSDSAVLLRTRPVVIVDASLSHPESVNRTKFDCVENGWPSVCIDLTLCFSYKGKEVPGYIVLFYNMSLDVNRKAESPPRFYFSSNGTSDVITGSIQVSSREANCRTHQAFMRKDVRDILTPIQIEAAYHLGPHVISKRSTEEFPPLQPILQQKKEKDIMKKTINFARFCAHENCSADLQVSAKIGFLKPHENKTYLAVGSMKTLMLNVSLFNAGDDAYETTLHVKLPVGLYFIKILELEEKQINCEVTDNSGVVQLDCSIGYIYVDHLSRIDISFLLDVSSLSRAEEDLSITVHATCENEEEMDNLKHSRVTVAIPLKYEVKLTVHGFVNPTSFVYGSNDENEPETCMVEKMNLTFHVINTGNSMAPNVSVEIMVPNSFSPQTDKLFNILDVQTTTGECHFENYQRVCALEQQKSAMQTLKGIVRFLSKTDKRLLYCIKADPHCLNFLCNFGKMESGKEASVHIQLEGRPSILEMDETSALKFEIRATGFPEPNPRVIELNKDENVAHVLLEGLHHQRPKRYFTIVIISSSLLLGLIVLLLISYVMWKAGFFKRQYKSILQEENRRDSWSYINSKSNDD
Sequence of α4β7 integrin (P26010 20-798): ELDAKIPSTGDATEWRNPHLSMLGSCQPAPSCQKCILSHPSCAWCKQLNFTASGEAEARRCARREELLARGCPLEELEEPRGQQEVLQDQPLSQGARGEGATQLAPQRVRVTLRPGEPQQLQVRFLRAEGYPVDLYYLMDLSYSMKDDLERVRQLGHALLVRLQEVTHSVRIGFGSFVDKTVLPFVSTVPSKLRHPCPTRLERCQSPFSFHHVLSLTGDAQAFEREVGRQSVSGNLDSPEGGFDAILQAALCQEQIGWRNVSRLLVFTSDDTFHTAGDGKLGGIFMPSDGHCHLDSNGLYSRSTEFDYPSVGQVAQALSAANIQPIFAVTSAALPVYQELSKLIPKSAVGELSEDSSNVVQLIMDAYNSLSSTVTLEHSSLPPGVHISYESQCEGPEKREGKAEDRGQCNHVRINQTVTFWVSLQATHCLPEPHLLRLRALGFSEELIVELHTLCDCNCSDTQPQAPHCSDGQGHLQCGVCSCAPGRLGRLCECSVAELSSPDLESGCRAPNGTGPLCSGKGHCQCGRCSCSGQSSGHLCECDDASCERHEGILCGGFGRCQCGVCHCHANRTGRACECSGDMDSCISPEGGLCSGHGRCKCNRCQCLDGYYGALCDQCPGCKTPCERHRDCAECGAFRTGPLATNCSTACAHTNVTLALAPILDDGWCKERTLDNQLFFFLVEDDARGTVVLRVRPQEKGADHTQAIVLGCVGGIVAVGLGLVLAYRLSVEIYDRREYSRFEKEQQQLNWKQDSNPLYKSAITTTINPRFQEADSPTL
Sequence of α4β1 integrin (P13612 34-1032): as the sequence (P13612 34-1032) above
Sequence of α4β1 integrin (P05556 21-798): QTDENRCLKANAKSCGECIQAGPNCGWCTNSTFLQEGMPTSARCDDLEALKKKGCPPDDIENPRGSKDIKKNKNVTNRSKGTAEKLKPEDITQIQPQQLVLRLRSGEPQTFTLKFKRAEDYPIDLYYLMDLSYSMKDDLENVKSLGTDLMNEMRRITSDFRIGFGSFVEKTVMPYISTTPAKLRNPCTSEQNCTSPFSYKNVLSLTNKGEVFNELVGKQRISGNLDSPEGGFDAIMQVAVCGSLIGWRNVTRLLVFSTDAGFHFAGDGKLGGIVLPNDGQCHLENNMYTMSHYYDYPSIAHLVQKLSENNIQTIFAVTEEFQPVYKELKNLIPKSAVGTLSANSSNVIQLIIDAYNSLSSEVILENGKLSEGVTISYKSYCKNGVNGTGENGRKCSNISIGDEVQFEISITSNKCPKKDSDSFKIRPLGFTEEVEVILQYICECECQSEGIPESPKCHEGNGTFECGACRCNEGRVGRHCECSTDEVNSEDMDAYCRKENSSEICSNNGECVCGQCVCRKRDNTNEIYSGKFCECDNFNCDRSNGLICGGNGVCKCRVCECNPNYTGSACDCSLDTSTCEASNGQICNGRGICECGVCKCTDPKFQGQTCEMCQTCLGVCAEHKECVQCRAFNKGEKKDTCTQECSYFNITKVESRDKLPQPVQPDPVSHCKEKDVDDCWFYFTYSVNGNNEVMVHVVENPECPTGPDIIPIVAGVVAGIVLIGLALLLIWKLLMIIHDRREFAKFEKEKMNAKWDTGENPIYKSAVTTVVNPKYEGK

IC50 [1] | IC50 [2, 3] | IC50 ([1]; protocol not given) | IC50 [2, 4] | SMILES
10 to 100 nM | > 1000 nM |  |  | Cn1ccc(C(F)(F)F)c(-c2cccc3c(C[C@H](NC(=O)c4c(F)cc(N5CCOC(CN6CCCC6)C5)cc4F)C(=O)O)cccc23)c1=O (stereo partly drawn) [Compound 440]
 |  | < 10 nM | 100 to 1000 nM | CN(C)CCc1ccc2c(c1)c(C(F)(F)F)c(-c1cccc3c(C[C@H](NC(=O)c4c(F)cc(N5CCOC[C@@H]5C(F)(F)F)cc4F)C(=O)O)cccc13)c(=O)n2C [Compound 708]
10 to 100 nM | > 1000 nM |  |  | COCCN(c1cc(F)c(C(=O)N[C@@H](Cc2cccc3c(-c4c(C(F)(F)F)c5ccccc5n(C)c4=O)cccc23)C(=O)O)c(F)c1)C1COC1 [Compound 393]
10 to 100 nM | > 1000 nM |  |  | CN(C)Cc1cccc(F)c1C(=O)N[C@@H](Cc1cccc2c(-c3cccc4ccncc34)cccc12)C(=O)O [Compound 357]
10 to 100 nM | > 1000 nM |  |  | CN(C)c1ccc2c(c1)c(C(F)(F)F)c(-c1cccc3c(C[C@H](NC(=O)c4c(F)cc(N5CCOC[C@@H]5C(F)(F)F)cc4F)C(=O)O)cccc13)c(=O)n2C [Compound 302]
10 to 100 nM | > 1000 nM |  |  | Cn1c(=O)c(-c2cccc3c(C[C@H](NC(=O)[C@]4(C)CC[C@@H](N5CCOC[C@@H]5C(F)(F)F)CC4)C(=O)O)cccc23)c(C(F)(F)F)c2ccccc21 [Compound 346]
10 to 100 nM | > 1000 nM |  |  | Cn1c(C(F)(F)F)cc(C(F)(F)F)c(-c2cccc3c(C[C@H](NC(=O)[C@]4(C)CC[C@@H](N5CCC(F)(F)CC5)CC4)C(=O)O)cccc23)c1=O (single isomer, unassigned) [Compound 405]
100 to 1000 nM | > 1000 nM |  |  | COCCN(C)c1cc(F)c(C(=O)N[C@@H](Cc2cccc3c(-c4c(C(F)(F)F)c5ccccc5n(C)c4=O)cccc23)C(=O)O)c(F)c1 [Compound 384]
< 10 nM | > 1000 nM |  |  | CN(C)Cc1cccc2c(-c3cccc4c(C[C@H](NC(=O)[C@]5(C)CC[C@@H](N6CCOC[C@@H]6C(F)(F)F)CC5)C(=O)O)cccc34)nccc12 [Compound 418]
10 to 100 nM | 100 to 1000 nM |  |  | Cn1c(=O)c(-c2cccc3c(C[C@H](NC(=O)c4c(F)cc5cnn(CC(F)(F)F)c5c4F)C(=O)O)cccc23)c(C(F)(F)F)c2ccccc21 [Compound 322]
< 10 nM | > 1000 nM |  |  | Cn1c(=O)c(-c2cccc3c(C[C@H](NC(=O)C4(C)CCN([C@@H]5CCOC5)CC4)C(=O)O)cccc23)c(C(F)(F)F)c2ccccc21 [Compound 414]
10 to 100 nM | > 1000 nM |  |  | Cn1c(=O)c(-c2cccc3c(C[C@H](NC(=O)C4(C)CCN(C5CCOCC5)CC4)C(=O)O)cccc23)c(C(F)(F)F)c2ccccc21 [Compound 362]
10 to 100 nM | > 1000 nM |  |  | Cn1c(=O)c(-c2cccc3c(C[C@H](NC(=O)c4c(F)ccc(-c5ccccn5)c4F)C(=O)O)cccc23)c(C(F)(F)F)c2ccccc21 [Compound 313]
10 to 100 nM | > 1000 nM |  |  | Cn1c(C(F)(F)F)cc(C(F)(F)F)c(-c2cccc3c(C[C@H](NC(=O)[C@]4(C)CC[C@H](N5CCOC[C@@H]5C(F)(F)F)CC4)C(=O)O)cccc23)c1=O [Compound 408]
100 to 1000 nM | > 1000 nM |  |  | CN(c1cc(F)c(C(=O)N[C@@H](Cc2cccc3c(-c4c(C(F)(F)F)c5ccccc5n(C)c4=O)cccc23)C(=O)O)c(F)c1)C1COC1 [Compound 364]
10 to 100 nM | > 1000 nM |  |  | CN(C)Cc1ccc2c(-c3cccc4c(C[C@H](NC(=O)[C@]5(C)CC[C@@H](N6CCOC[C@@H]6C(F)(F)F)CC5)C(=O)O)cccc34)nccc2c1 [Compound 581]
 |  | 10 to 100 nM | > 1000 nM | O=C(N[C@@H](Cc1cccc2c(-n3c(C(F)(F)F)cccc3=O)cccc12)C(=O)O)c1c(F)cccc1F [Compound 1040]
< 10 nM | > 1000 nM |  |  | CN(C)Cc1cc(-c2cccc3c(C[C@H](NC(=O)c4c(F)cc(N5CCOC[C@@H]5C(F)(F)F)cc4CN4CCOCC4)C(=O)O)cccc23)c2cnccc2c1 [Compound 294]
